Structures can show the parent of a compound that is named as a salt.
Key:
[1] = test system: ob/ob mice; experiment: Plasma glucose, compound in chow, obese mice; type: in vivo, mouse (C57 B1/6J ob/ob)
Protocol: (§1) The compounds of this invention were tested for hypoglycemic and anti-obesity activity according to the following procedure.
(§2) Obese mice (C57 B1/6J (ob/ob)), and/or diabetic mice (C57 B1/KsJ (db/db)) were obtained from Jackson Laboratories, Bar Harbor, Maine. Obese rats (fa/fa) were obtained from Charles River Laboratories, Wilmington, Mass. Obese mice were 8 weeks of age and diabetic mice were 9 weeks of age at the start of the test. Obese rats were 12-14 weeks of age at the start.
(§3) The test compounds were dissolved in methanol, mixed with powdered Purina rodent chow on a weight of compound to weight of chow basis and thoroughly dried.
(§4) Groups of 6 control mice or rats received vehicle (methanol) treated chow.
[…] Thus, a 40 g mouse, fed the test compound at a concentration of 0.02 percent of the diet, would receive a dose of 20 mg/kg/day if it ate 4 g of chow per day.
(§5) The mice or rats were weighed before the first treatment and once at the end of each indicated treatment period.
Blood samples were collected before the first treatment and once at the end of each indicated treatment period by retro-orbital puncture using heparinized capillary tubes.
Plasma was separated by centrifugation in a Beckman microfuge for 5 minutes. Plasma glucose concentrations were determined with the Beckman glucose analyzer which uses a glucose oxidase method.

[2] = test system: ob/ob mice; experiment: Change in weight and food consumption, compound in chow, obese mice; type: in vivo, mouse (C57 B1/6J ob/ob)
Protocol: as §1, §2, §3, §4
Groups of 6 test mice were fed ad libitum for up to seven weeks and food consumption was measured daily by weighing the food bins before and after the addition of fresh chow. Thus, a 40 g mouse, fed the test compound at a concentration of 0.02 percent of the diet, would receive a dose of 20 mg/kg/day if it ate 4 g of chow per day.
as §5

[3] = test system: fa/fa rats; experiment: Change in weight and food consumption, compound in chow, obese rats; type: in vivo, rat (fa/fa)
Protocol: as §1, §2, §3, §4
Groups of 6 test rats were fed 25 g of chow per day for one month. Except for the first day or two, they consumed all their food each day. When these animals are fed ad libitum, they consume 26 g of chow per day and the compounds have no effect on food consumption.
as §5

[4] = molecular target: T1, β3-receptors (Rattus norvegicus, UniProt P26255); experiment: Stimulation of adipocyte lipolysis (β3-effect); type: cell-based
T1 construct: Rat epididymal fat pads were excised and placed in 0.9% saline; from tissue; host or cells: collagenase-isolated adipocytes from rat epididymal fat pads
T1 sequence (P26255 whole entry): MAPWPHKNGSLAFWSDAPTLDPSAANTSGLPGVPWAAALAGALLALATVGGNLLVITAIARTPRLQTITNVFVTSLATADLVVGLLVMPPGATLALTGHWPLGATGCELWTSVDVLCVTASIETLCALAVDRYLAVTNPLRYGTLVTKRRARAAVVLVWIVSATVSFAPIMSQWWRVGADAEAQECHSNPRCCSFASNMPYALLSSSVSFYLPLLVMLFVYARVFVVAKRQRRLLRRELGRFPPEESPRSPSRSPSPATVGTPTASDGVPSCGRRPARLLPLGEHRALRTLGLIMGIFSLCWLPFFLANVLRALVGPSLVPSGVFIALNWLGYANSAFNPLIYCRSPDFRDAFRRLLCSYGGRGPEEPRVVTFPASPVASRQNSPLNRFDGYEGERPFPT
Protocol: (§6) β-Adrenergic receptors can be divided into β1, β2 and β3 -subtypes. Activation of β1 -receptors invokes increases in heart rate while activation of β2 -receptors stimulates glycogen breakdown in muscle and thereby prevents glycogen synthesis. Activation of β3 -receptors stimulates lipolysis (the breakdown of adipose tissue triglycerides to glycerol and free fatty acids), and thereby promotes the loss of fat mass.
The β3 -effect of the compounds was determined by their ability to stimulate adipocyte lipolysis. Rat epididymal fat pads were excised and placed in 0.9% saline. Four grams of tissue were transferred to a flask with 20 ml of aerated Krebs-Henseleit bicarbonate (KHB) buffer containing 3% fatty acid-free bovine serum albumin to which 75 mg of crude bacterial collagenase (Worthington) had been added. The tissue was incubated for about 45 minutes at 37° C. with gentle shaking. The cells were then washed three times with two volumes of KHB buffer, filtered through two layers of gauze, and brought to a final volume of 80 ml with KHB buffer. One ml aliquots of the cell suspension were added to plastic test tubes containing the appropriate additions of vehicle or compound. The cells were gassed for 1 minute with 95% O2 -5% CO2, capped, and incubated at 37° C. with continuous shaking for a total of 30 minutes. The reaction was stopped by adding 0.1 ml of 30% perchloric acid and 0.1 ml of chloroform. After centrifugation, 0.5 ml of supernatant was transferred to another test tube and neutralized with 0.04 ml of 3M K2 CO3 -0.5M triethanolamine. The amount-of glycerol generated from the hydrolysis of endogenous triglycerides was determined in a coupled-enzyme spectrophotometric assay. […] The test tubes were incubated for 40 minutes at 37° C. with constant shaking. […] This value was corrected for the amount of NADH generated in the absence of glycerol by incubating another aliquot of the neutralized extract with the same assay mixture but without glycerokinase.

[5] = molecular target: T2, β1-receptors (Cavia porcellus, UniProt H0W3H1); experiment: Effect on heart rate of isolated right atria (β1-effect); set-up: species or system guinea pig
T2 construct: from tissue; host or cells: guinea pig right atria
T2 sequence (H0W3H1 1-470): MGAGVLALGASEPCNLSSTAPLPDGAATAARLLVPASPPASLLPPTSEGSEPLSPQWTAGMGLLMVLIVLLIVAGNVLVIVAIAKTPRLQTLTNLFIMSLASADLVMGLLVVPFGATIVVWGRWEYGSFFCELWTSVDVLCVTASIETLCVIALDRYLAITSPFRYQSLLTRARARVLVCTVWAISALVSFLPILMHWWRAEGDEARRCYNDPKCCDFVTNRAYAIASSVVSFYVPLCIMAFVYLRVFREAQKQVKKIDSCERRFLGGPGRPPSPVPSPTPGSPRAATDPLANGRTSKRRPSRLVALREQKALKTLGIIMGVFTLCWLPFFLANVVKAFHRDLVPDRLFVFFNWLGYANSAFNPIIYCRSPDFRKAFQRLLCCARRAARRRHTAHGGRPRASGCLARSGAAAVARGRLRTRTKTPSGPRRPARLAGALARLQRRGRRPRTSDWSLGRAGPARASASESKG
Protocol: as §6
Selectivity of a compound was determined using the following procedures. The effect on heart rate (β1 -effect) was determined using isolated right atria. […] The right atria were dissected and clamped at one end to a tissue holder and electrode assembly (MRA Corp.) and tied at the other end to a force-displacement transducer (Gould-Statham, Burco). The tissues were maintained at 32° C. in a 50 ml capacity glass chamber (MRA Corp.) preloaded with 0.5 g tension. Heart rate was monitored by a Grass polygragh. […] The increase in heart rate was calculated and considered to be the maximum response for that tissue. The tissues were then washed and allowed to equilibrate for 90 minutes. Cumulative concentration-response curves were then determined for each compound or vehicle. All responses were measured 5 minutes post-exposure.

[6] = dose 0.0005 % wt of chow, week 1
[7] = dose 0.0005 % wt of chow, week 4
[8] = dose 0.002 % wt of chow, week 1
[9] = dose 0.002 % wt of chow, week 4
[10] = dose 0.005 % wt of chow, week 1
[11] = dose 0.005 % wt of chow, week 4
[12] = dose 0.002 % wt of chow, week 2
[13] = dose 0.002 % wt of chow, week 3

## COC(=O)C1(C(=O)OC)Oc2ccc(C[C@@H](C)NC[C@H](O)c3cccc(Cl)c3)cc2O1 (stereo in doubt) [CL1, (R* R*)-(±)-5-(2-((2-(3-chlorophenyl)-2-hydroxyethyl)amino)propyl)-1,3-benzodioxole-2,2-dicarboxylic acid, dimethyl ester hydrobromide]
[1]; dose 0.0005 % wt of chow, week 0 (before treatment)
  Plasma Glucose Levels: 270 mg/100 ml
[1]; [6]
  Plasma Glucose Levels: 164 mg/100 ml
[1]; [7]
  Plasma Glucose Levels: 179 mg/100 ml
[1]; dose 0.002 % wt of chow, week 0 (before treatment)
  Plasma Glucose Levels: 276 mg/100 ml
[1]; [8]
  Plasma Glucose Levels: 150 mg/100 ml
[1]; [9]
  Plasma Glucose Levels: 156 mg/100 ml
[1]; dose 0.005 % wt of chow, week 0 (before treatment)
  Plasma Glucose Levels: 237 mg/100 ml
[1]; [10]
  Plasma Glucose Levels: 143 mg/100 ml
[1]; [11]
  Plasma Glucose Levels: 157 mg/100 ml
[2]; dose 0.0005 % wt of chow
  Average Daily Food Consumption: 5.6 g/animal
[2]; [6]
  Change in weight: 0.5 grams
[2]; dose 0.0005 % wt of chow, week 2
  Change in weight: 2.2 grams
[2]; dose 0.0005 % wt of chow, week 3
  Change in weight: 3.2 grams
[2]; [7]
  Change in weight: 5.2 grams
[2]; dose 0.002 % wt of chow
  Average Daily Food Consumption: 5.6 g/animal
[2]; [8]
  Change in weight: -0.3 grams
[2]; [12]
  Change in weight: 1.1 grams
[2]; [13]
  Change in weight: 1.6 grams
[2]; [9]
  Change in weight: 3.2 grams
[2]; dose 0.005 % wt of chow
  Average Daily Food Consumption: 5.8 g/animal
[2]; [10]
  Change in weight: -1.1 grams
[2]; dose 0.005 % wt of chow, week 2
  Change in weight: -0.7 grams
[2]; dose 0.005 % wt of chow, week 3
  Change in weight: -0.2 grams
[2]; [11]
  Change in weight: 1.6 grams
[3]; dose 0.0006 % wt of chow
  Average Daily Food Consumption: 25 g/animal
[3]; dose 0.0006 % wt of chow, week 1
  Change in weight: 14 grams
[3]; dose 0.0006 % wt of chow, week 2
  Change in weight: 20 grams
[3]; dose 0.0006 % wt of chow, week 3
  Change in weight: 27 grams
[3]; dose 0.0006 % wt of chow, week 4
  Change in weight: 26 grams
[3]; dose 0.002 % wt of chow
  Average Daily Food Consumption: 25 g/animal
[3]; [8]
  Change in weight: 1 grams
[3]; [12]
  Change in weight: 2 grams
[3]; [13]
  Change in weight: 3 grams
[3]; [9]
  Change in weight: 4 grams
[3]; dose 0.006 % wt of chow
  Average Daily Food Consumption: 25 g/animal
[3]; dose 0.006 % wt of chow, week 1
  Change in weight: 10 grams
[3]; dose 0.006 % wt of chow, week 2
  Change in weight: 4 grams
[3]; dose 0.006 % wt of chow, week 3
  Change in weight: -15 grams
[3]; dose 0.006 % wt of chow, week 4
  Change in weight: -8 grams
[4]; CL2 vs BRL2, CL1 vs BRL1
  times more selective for lipolysis than prior art compound: 3 times
[4]; CL2 vs BRL2, CL1 vs BRL1, lipolysis over atria
  Relative Selectivity (CL/BRL), Atria: 3.1
[4]; CL2 vs BRL2, CL1 vs BRL1, lipolysis over glycogen synthesis
  Relative Selectivity (CL/BRL), Gly. Syn.: 3.0
[4]; ratio EC50 β1 / EC50 β3
  Selectivity for Lipolysis over Atria ((EC50 - β1)/(EC50 - β3)): 47
[4]; ratio EC50 β2 / EC50 β3
  Selectivity for Lipolysis over Gly. Syn. ((EC50 - β2)/(EC50 - β3)): 27
[5]
  EC50: 14 nM
